Molecules are shown by their SMILES. Read-outs that look alike come from different tables or passages of the source.

The values below come from patent publication US12116358B2, “Substituted indoles and methods of use thereof” (EPIZYME, INC., priority 2018, dated 2024).

In one assay the test system is H3K36me3 in A549 cells. Put plainly: In-Cell Western (ICW) assay of SETD2 inhibitors (A549 assay). The assay is classed as cell-based, human. The conditions noted are these: A549 cells, read-out: SETD2 A549. As for the experimental part: In-Cell Western (ICW) Assay of SETD2 Inhibitors (A549 Assay)
Representative Compounds of the Disclosure were tested in the A549 assay according the following protocol.
1. Reagents and Consumables:
Prepare plates with compounds. Seed A549 cells to the plates with compounds, 4,000 cells/well, 50 μl/well. Put the plates at room temperature on a non-vibrating surface for 20 minutes before placing in the incubator. Incubate the plate at 37° C. incubator with CO2 for 3 days. Remove plate from incubator and bring to room temperature. Blot media out of the plate and add 50 μL of ice cold 100% methanol. Incubate 30 minutes at room temperature. Remove methanol by aspiration. Wash 3× with PBST. Add 50 μL of Blocking Buffer+0.1% Tween 20. Incubate 1 hour. Remove Blocking Buffer, wash 3× with PBST. Add 20 μL of H3K36me3 (1:1000 dilution). […] Incubate overnight at 4° C. Wash plate 5× with PBS-T. Add 20 μL of DRAQ5 (1:1000) and IRDye 800CW Goat anti-Rabbit IgG (1:500). Incubate for 1 hour in the dark. Wash plate 5× with PBS-T. Wash plate 3× with water. Dry by blotting on paper towel, then centrifuge plate upside down on a thin layer of paper towels for 1 minute at 1000 rpm to remove excess reagent. Leave plate uncovered for ˜10 minutes out of direct light before reading. Read on Licor instrument.
4. Licor Instrument Settings:
Preset: Plate; Resolution: 84 μm; Quality: low; Focus offset: 4.0; 700 channel intensity: 2; and 800 channel intensity: 3.

The next assay has as its target T1, SETD2(1434-1711) (Homo sapiens, UniProt Q9BYW2).
T1 construct: SETD2 (1434-1711) Assay; catalogue N/A
T1 sequence (Q9BYW2 1434-1711): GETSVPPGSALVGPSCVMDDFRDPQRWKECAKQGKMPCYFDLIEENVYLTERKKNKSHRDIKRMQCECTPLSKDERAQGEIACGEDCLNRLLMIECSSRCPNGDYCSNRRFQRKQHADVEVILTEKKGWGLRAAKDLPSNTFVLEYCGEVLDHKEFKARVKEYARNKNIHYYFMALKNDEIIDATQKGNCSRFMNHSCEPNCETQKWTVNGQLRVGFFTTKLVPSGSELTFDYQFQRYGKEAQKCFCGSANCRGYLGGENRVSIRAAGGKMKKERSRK
Put plainly: SETD2 (1434-1711) assay. It is filed as biochemical. The conditions noted are these: read-out: SETD2 (1434-1711).

For the molecule `Cc1ccc(F)c2cc(C(=O)Nc3cccc(N4CC5(CCN(CC(F)F)CC5)C4)c3)[nH]c12` [compound 41], the IC50 in the assay with H3K36me3 in A549 cells turned out to be 100 nM; at SETD2(1434-1711), 30 nM.
`CC(=O)N(C)C1CCCN(c2cccc(NC(=O)c3cc4c(F)ccc(C)c4[nH]3)c2)C1` (centres unmarked) [compound 42]: the IC50 in the assay on H3K36me3 in A549 cells was determined as 100 nM; at SETD2(1434-1711) it was 20 nM.
Regarding `Cc1ccc(F)c2cc(C(=O)Nc3cc(F)cc(N4CCN(C(=O)C(C)N(C)C)CC4)c3)[nH]c12` (centres unmarked) [compound 43], the IC50 worked out at 100 nM in the assay with H3K36me3 in A549 cells and 7 nM at SETD2(1434-1711).
On to `COCC(=O)N1CCN(c2cccc(NC(=O)c3cc4c(F)ccc(C)c4[nH]3)c2)CC1` [compound 44], for which the IC50 in the assay with H3K36me3 in A549 cells (Homo sapiens) stood at 100 nM; on SETD2(1434-1711), 40 nM.
In the same order, the values of `CC(=O)N1CCC(c2cccc(NC(=O)c3cc4c(F)ccc(C)c4[nH]3)c2)CC1` [compound 45] are 100 nM and 30 nM.
Regarding `Cc1ccc(F)c2cc(C(=O)Nc3cc(F)cc(N4CCC(N(C)CCF)C4)c3)[nH]c12` (centres unmarked) [compound 47], the IC50 with H3K36me3 in A549 cells came to 100 nM; at SETD2(1434-1711), 10 nM.
Consider `Cc1ccc(F)c2cc(C(=O)Nc3cc(F)cc(N4CCOC(CO)C4)c3)[nH]c12` (centres unmarked) [compound 48], for which the IC50 in the assay on H3K36me3 in A549 cells turned out to be 100 nM; at SETD2(1434-1711), 20 nM.
In the case of `Cc1ccc(F)c2cc(C(=O)Nc3cccc(N4CCN(C(=O)c5cccnc5)CC4)c3)[nH]c12` [compound 49], the values for the IC50 in the assay on H3K36me3 in A549 cells and at SETD2(1434-1711) were 100 nM and 30 nM, respectively.
For `Cc1ccc(F)c2cc(C(=O)Nc3cccc(N4CCOC(CCO)C4)c3)[nH]c12` (centres unmarked) [compound 50] the same measures were 100 nM and 60 nM.
For `Cc1ccc(F)c2cc(C(=O)Nc3cccc([C@@H]4CCN5C(=O)CC[C@@H]5C4)c3)[nH]c12` [compound 51] the same measures were 100 nM and 20 nM.
For `CC(=O)N1CCN(c2cccc(NC(=O)c3cc4c(F)ccc(C)c4[nH]3)c2F)CC1` [compound 52] the same measures were 100 nM and 70 nM.
Regarding `Cc1ccc(F)c2cc(C(=O)Nc3cc(F)cc(N4CCC(N(C)C)C4)c3)[nH]c12` (centres unmarked) [compound 53], the IC50 worked out at 100 nM with H3K36me3 in A549 cells and 5 nM on SETD2(1434-1711).
As for `Cc1ccc(F)c2cc(C(=O)Nc3cccc(N4CCN5C(=O)N(C)CC5C4)c3)[nH]c12` (centres unmarked) [compound 54], the results for the IC50 with H3K36me3 in A549 cells (Homo sapiens) and at SETD2(1434-1711) were 100 nM and 30 nM, respectively.
For the molecule `Cc1ccc(F)c2cc(C(=O)Nc3cccc(N4CCN(C(=O)N(C)C)CC4)c3)[nH]c12` [compound 55], the IC50 came out at 100 nM in the assay on H3K36me3 in A549 cells (Homo sapiens) and 50 nM on SETD2(1434-1711).
Consider `CC(=O)N1CCC(c2cc(F)cc(NC(=O)c3cc4c(F)ccc(C)c4[nH]3)c2)C1` (centres unmarked) [compound 56], for which the IC50 in the assay on H3K36me3 in A549 cells stood at 100 nM; at SETD2(1434-1711), 30 nM.
`Cc1ccc(F)c2cc(C(=O)Nc3cccc(N4CCC5(CC4)COC5)c3)[nH]c12` [compound 57]: the values for the IC50 with H3K36me3 in A549 cells and at SETD2(1434-1711) were 100 nM and 30 nM, respectively.
Regarding `Cc1ccc(F)c2cc(C(=O)Nc3cccc(N4CCN(C)C(=O)C4)c3)[nH]c12` [compound 58], the values for the IC50 in the assay on H3K36me3 in A549 cells and on SETD2(1434-1711) were 100 nM and 40 nM, respectively.
In the same order, the values of `Cc1ccc(F)c2cc(C(=O)Nc3cccc(N4CCC(N(C)C)C4)c3)[nH]c12` (centres unmarked) [compound 59] are 100 nM and 10 nM.
For `Cc1ccc(F)c2cc(C(=O)Nc3cccc(N4C[C@H](O)[C@@H](N(C)C)C4)c3)[nH]c12` [compound 61] the same measures were 100 nM and 10 nM.
In the case of `Cc1ccc(F)c2cc(C(=O)Nc3cc(F)cc(N4CCN(C(=O)CN(C)C)CC4)c3)[nH]c12` [compound 62], the IC50 is 100 nM with H3K36me3 in A549 cells and 9 nM on SETD2(1434-1711).
As for `Cc1ccc(F)c2cc(C(=O)Nc3cccc(N4CC(F)C(N(C)C)C4)c3)[nH]c12` (centres unmarked) [compound 63], the results for the IC50 with H3K36me3 in A549 cells and at SETD2(1434-1711) were 100 nM and 20 nM, respectively.
In the case of `Cc1ccc(F)c2cc(C(=O)Nc3cccc([C@H]4CC[C@H](N(C)C)CC4)c3)[nH]c12` [compound 68], the values for the IC50 in the assay with H3K36me3 in A549 cells and on SETD2(1434-1711) were 200 nM and 6 nM, respectively.
In the same order, the values of `Cc1ccc(F)c2cc(C(=O)Nc3cc(F)cc([C@H]4CC[C@@H](N(C)C)CC4)c3)[nH]c12` [compound 69] are 200 nM and 3 nM.
As for `Cc1ccc(F)c2cc(C(=O)Nc3cc(F)cc(N4CCN(C(=O)CN(C)C)C(C)C4)c3)[nH]c12` (centres unmarked) [compound 70], the IC50 in the assay on H3K36me3 in A549 cells (Homo sapiens) turned out to be 200 nM; on SETD2(1434-1711), 9 nM.
For `CCC1CN(c2cccc(NC(=O)c3cc4c(F)ccc(C)c4[nH]3)c2)CCN1C(C)=O` (centres unmarked) [compound 71], the IC50 worked out at 200 nM in the assay with H3K36me3 in A549 cells and 40 nM at SETD2(1434-1711).
In the same order, the values of `Cc1ccc(F)c2cc(C(=O)Nc3cccc(N4CCN(C(=O)CO)CC4)c3)[nH]c12` [compound 72] are 200 nM and 30 nM.
`CC(=O)N1CCC(c2cccc(NC(=O)c3cc4c(F)ccc(C)c4[nH]3)c2)C1` (centres unmarked) [compound 73]: the IC50 in the assay with H3K36me3 in A549 cells worked out at 200 nM; at SETD2(1434-1711) it was 40 nM.
In the same order, the values of `Cc1ccc(F)c2cc(C(=O)Nc3cccc(N4CCC(N5CCOCC5)C4)c3)[nH]c12` (centres unmarked) [compound 74] are 200 nM and 30 nM.
For `COCCC(=O)N1CCN(c2cccc(NC(=O)c3cc4c(F)ccc(C)c4[nH]3)c2)CC1` [compound 75] the same measures were 200 nM and 60 nM.
For `CC(=O)N1CCN(c2cccc(NC(=O)c3cc4c(F)ccc(C)c4[nH]3)c2)CC1C(F)(F)F` (centres unmarked) [compound 77] the same measures were 200 nM and 60 nM.
Consider `CC(=O)N(C)C1CCN(c2cccc(NC(=O)c3cc4c(F)ccc(C)c4[nH]3)c2)CC1` [compound 78], for which the IC50 amounted to 200 nM with H3K36me3 in A549 cells and 40 nM on SETD2(1434-1711).
For `CC(=O)N1CCN(c2cc(NC(=O)c3cc4c(F)ccc(C)c4[nH]3)ccc2F)CC1` [compound 79], the IC50 is 200 nM in the assay with H3K36me3 in A549 cells and 70 nM at SETD2(1434-1711).
For `COCc1nnc(-c2cccc(NC(=O)c3cc4c(F)ccc(C)c4[nH]3)c2)s1` [compound 81] the same measures were 200 nM and 30 nM.
For `COC(=O)N1CCC2(CC1)CCN(c1cccc(NC(=O)c3cc4c(F)ccc(C)c4[nH]3)c1)C2` [compound 83] the same measures were 200 nM and 20 nM.
As to `CC(=O)N1CCN(c2cccc(NC(=O)c3cc4c(F)ccc(Br)c4[nH]3)c2)CC1` [compound 84], the results for the IC50 with H3K36me3 in A549 cells and on SETD2(1434-1711) were 200 nM and 40 nM, respectively.
Regarding `Cc1ccc(F)c2cc(C(=O)Nc3cccc(N4CCC5(CCCN5)CC4)c3)[nH]c12` [compound 86], the IC50 came to 200 nM in the assay on H3K36me3 in A549 cells and 5 nM at SETD2(1434-1711).
In the case of `Cc1ccc(F)c2cc(C(=O)Nc3cccc(N4CCC(C)(O)CC4)c3)[nH]c12` [compound 87], the values for the IC50 in the assay on H3K36me3 in A549 cells (Homo sapiens) and on SETD2(1434-1711) were 200 nM and 100 nM, respectively.
`CCN1CCN(c2cccc(NC(=O)c3cc4c(F)ccc(C)c4[nH]3)c2)CC1=O` [compound 88]: the IC50 in the assay with H3K36me3 in A549 cells turned out to be 200 nM; at SETD2(1434-1711), 50 nM.
Regarding `Cc1ccc(F)c2cc(C(=O)Nc3cc(F)cc(C4CCN(C5CC(=O)N(C)C5)C4)c3)[nH]c12` (centres unmarked) [compound 89], the IC50 in the assay on H3K36me3 in A549 cells (Homo sapiens) was 200 nM; on SETD2(1434-1711) it was 30 nM.
As to `Cc1ccc(F)c2cc(C(=O)Nc3cccc([C@H]4CCN5C(=O)CC[C@H]5C4)c3)[nH]c12` [compound 90], the IC50 with H3K36me3 in A549 cells was determined as 200 nM; on SETD2(1434-1711) it was 30 nM.
For the molecule `Cc1ccc(F)c2cc(C(=O)Nc3cc(Cl)cc(N4CCN(C)CC4)c3)[nH]c12` [compound 91], the IC50 in the assay on H3K36me3 in A549 cells came to 200 nM; on SETD2(1434-1711), 10 nM.
For `Cc1ccc(F)c2cc(C(=O)Nc3cccc(N4CCN(C(=O)CF)CC4)c3)[nH]c12` [compound 92] the same measures were 200 nM and 30 nM.
For `Cc1ccc(F)c2cc(C(=O)Nc3cccc(N4CCN(C(=O)C5CC5)CC4)c3)[nH]c12` [compound 93] the same measures were 200 nM and 60 nM.
In the same order, the values of `Cc1ccc(F)c2cc(C(=O)Nc3cccc(N4CC[C@@H](N(C)C)C4)c3)[nH]c12` [compound 94] are 200 nM and 20 nM.
`Cc1ccc(F)c2cc(C(=O)Nc3cccc(N4CCC5(CC4)COCCN5)c3)[nH]c12` [compound 95]: the IC50 was found to be 200 nM in the assay with H3K36me3 in A549 cells (Homo sapiens) and 20 nM on SETD2(1434-1711).
Consider `Cc1ccc(F)c2cc(C(=O)Nc3cc(F)cc([C@@H]4CCN5C(=O)CC[C@H]5C4)c3)[nH]c12` [compound 96], for which the figures for the IC50 with H3K36me3 in A549 cells and at SETD2(1434-1711) were 200 nM and 40 nM, respectively.
